What was measured:
human GPR120 [1] = molecular target: T1, human GPR120 (Homo sapiens, UniProt Q5NUL3); assay: Human GPR120 β-Arrestin Recruitment Assay; assay type: cell-based; conditions: CHO-K1 cells co-expressing ProLink-tagged human GPR120 and β-Arrestin 2/β-gal fusion; PathHunter; 90 minutes at 37° C.; read-out: β-Arr pEC50 (converted)
T1 construct: host or cells: CHO-K1
Excerpt: This in vitro assay tests compounds' ability to activate intracellular signaling via β-Arrestin recruitment to heterologously expressed human GPR120. This functional cellular assay utilizes enzyme fragment complementation with β-galactosidase (β-gal) as a functional reporter (DiscoveRx PathHunter® β-Arrestin assay platform). The human GPR120 receptor (GenBank accession Number NM_181745) was fused in frame with the small enzyme fragment ProLink™ and co-expressed in CHO-K1 cells with a fusion protein of β-Arrestin 2 and the larger, N-terminal deletion mutant of β-gal. Activation by a GPR120 agonist stimulates binding of β-arrestin to the ProLink-tagged GPCR and forces complementation of the two enzyme fragments, resulting in the formation of an active β-gal enzyme. This interaction leads to an increase in enzyme activity that can be measured using chemiluminescent PathHunter® Detection Reagents.
One day prior to the assay, cells were seeded in a total volume of 20 μl of growth medium into white walled 384-well microplates and incubated at 37° C./5% CO2 overnight. On the day of the assay, growth medium was removed and 20 μl assay buffer (HBSS+10 mM HEPES+0.1% heat-inactivated BSA) were added to each well.
Test compounds were dissolved in 100% DMSO to a concentration of 10 mM to provide stock solutions. Serial dilutions were performed from stock solutions into assay buffer to obtain intermediate concentrations of 5-fold higher than the concentrations to be tested. 5 μl of the 5x compound solutions were added to the cells and the assay plates were incubated alt 37° C. for 90 minutes, The final concentration of compounds tested in the assay ranged from 1.5 nM to 100 μM. Following incubation, 12.5 μl of PathHunter® detection reagent were added to each well, and plates were incubated at room temperature for 60 minutes. Chemiluminescence was read using an EnVision plate reader (PerkinElmer), raw data were expressed as relative light units (RLU).
(§1) To determine agonist potencies (EC50 values), non-linear least-squares curve fits of the raw data (RLU) were performed in the GraphPad Prism software package, using the 4-parameter model with variable Hill Slope:
Reported below in Table 1 are pEC50 values (pEC50=−log(EC50) from curve fit) for compounds of Formula I in this assay, β-Arr pEC50.
T1 sequence (Q5NUL3 1-377 isoform Q5NUL3-1): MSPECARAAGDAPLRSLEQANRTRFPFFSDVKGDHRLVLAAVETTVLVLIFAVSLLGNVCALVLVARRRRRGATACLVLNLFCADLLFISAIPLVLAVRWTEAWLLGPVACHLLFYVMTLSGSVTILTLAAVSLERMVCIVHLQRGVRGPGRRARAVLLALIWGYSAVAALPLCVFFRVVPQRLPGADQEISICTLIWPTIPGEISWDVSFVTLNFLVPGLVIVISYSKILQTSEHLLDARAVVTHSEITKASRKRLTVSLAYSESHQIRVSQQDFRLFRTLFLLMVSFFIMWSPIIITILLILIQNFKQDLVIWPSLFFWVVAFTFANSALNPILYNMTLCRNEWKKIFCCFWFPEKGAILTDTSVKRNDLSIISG
T1 sequence (P32121 whole entry partner, the tested form may be a part): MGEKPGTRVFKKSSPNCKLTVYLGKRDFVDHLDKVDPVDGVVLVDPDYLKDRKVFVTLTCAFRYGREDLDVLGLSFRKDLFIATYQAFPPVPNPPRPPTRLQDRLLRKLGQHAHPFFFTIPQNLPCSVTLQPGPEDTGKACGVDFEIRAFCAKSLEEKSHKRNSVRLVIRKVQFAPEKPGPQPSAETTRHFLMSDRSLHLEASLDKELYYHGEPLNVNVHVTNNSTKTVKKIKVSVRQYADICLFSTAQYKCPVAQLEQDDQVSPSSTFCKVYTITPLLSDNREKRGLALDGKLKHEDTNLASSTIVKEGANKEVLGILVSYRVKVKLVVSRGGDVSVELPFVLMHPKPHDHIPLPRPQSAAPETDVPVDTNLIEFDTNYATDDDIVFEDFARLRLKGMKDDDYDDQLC

human GPR120 [2] = molecular target: T2, human GPR120 (Homo sapiens, UniProt Q5NUL3); assay: Human GPR120 Calcium-Release Assay; assay type: cell-based; conditions: short variant of human GPR120 in CHO-K1 cells coexpressing Gα16 and mitochondrial apoaequorin; luminescence; read-out: Ca2+ pEC50 (converted)
T2 construct: expressed in transfected cells; host or cells: CHO-K1 coexpressing Gα16 and mitochondrial apoaequorin
T2 sequence (Q5NUL3 1-361): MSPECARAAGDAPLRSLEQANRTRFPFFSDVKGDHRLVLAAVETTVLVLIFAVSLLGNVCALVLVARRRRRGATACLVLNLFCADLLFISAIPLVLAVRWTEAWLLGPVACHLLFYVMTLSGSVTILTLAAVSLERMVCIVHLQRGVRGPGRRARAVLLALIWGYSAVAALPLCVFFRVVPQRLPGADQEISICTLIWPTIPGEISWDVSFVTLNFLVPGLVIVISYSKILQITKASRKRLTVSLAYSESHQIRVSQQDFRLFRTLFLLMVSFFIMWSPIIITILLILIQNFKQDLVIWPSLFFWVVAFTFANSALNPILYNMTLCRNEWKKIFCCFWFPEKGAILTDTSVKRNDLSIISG
Excerpt: This in vitro assay tests compounds' ability to activate heterologously expressed human GPR120 via G-protein coupling leading to generation of inositol 1,4,5-triphosphate and mobilization of intracellular calcium. This functional cellular assay is based on the luminescence of mitochondrial aequorin following intracellular Ca^2+ release. Aequorin is a photoprotein isolated from the jellyfish Aequorea victoria. The active protein is formed in the presence of molecular oxygen from apoaequorin and its cofactor coelenterazine. Binding of Ca^2+ to the active protein induces a conformational change, resulting in oxidation of coelenterazine and subsequent blue luminescence.
The short variant of the human GPR120 receptor (GenBank accession Number AAI01176) was stably expressed in a CHO-K1 cell line coexpressing Gα16 and mitochondrial apoaequorin.
Cells were grown to mid-log phase in culture media without antibiotics, were detached with PBS/EDTA, centrifuged and resuspended in assay buffer (DMEM-F12 medium with 15 mM HEPES pH 7.0 and 0.1% protease free BSA) at a concentration of 10^6 cells/mL. Cells were incubated at room temperature for at least 4 hours with 5 μM coelenterazine h.
Test compounds were dissolved in 100% DMSO to a concentration of 20 mM to provide stock solutions. Serial dilutions were performed from stock solutions in 100% DMSO to obtain intermediate concentrations 200-fold higher than the concentrations to be tested. Each sample was diluted 100-fold into assay buffer. 50 μl of these compound solutions were dispensed into each well of 96-well assay plates. The final concentration of compounds tested in the assay ranged from 5 nM to 100 μM. α-Linolenic acid was used as a reference compound. Each test was performed in duplicate.
To start the assay, 50 μl of cell suspension were added to each well of the assay plate. The resulting luminescence was recorded using a Hamamatsu Functional Drug Screening System 6000 (FDSS 6000), and raw data were expressed as relative light units (RLU).
as §1
Reported below in Table 1 are pEC50 values (pEC50=−log(EC50) from curve fit) for representative compounds of Formula I in this assay, Ca2+pEC50.

| SMILES | EC50 (human GPR120 [1]) [µM] | EC50 (human GPR120 [2]) [µM] |
| --- | --- | --- |
| O=S1(=O)c2ccc(Oc3ccccc3)cc2CN1Cc1ccccc1 [Compound 2] | 0.501 | 1 |
| O=S1(=O)c2ccc(Oc3cccc(Cl)c3)cc2CN1Cc1ccccc1 [Compound 3] | 0.158 | 3.98 |
| O=S1(=O)c2ccc(Oc3ccc(Cl)cc3)cc2CN1Cc1ccccc1 [Compound 4] | 0.251 | 7.94 |
| O=S1(=O)c2ccc(Oc3ccc(Cl)c(Cl)c3)cc2CN1Cc1ccccc1 [Compound 5] | 1.58 |  |
| O=S1(=O)c2ccc(Oc3cccnc3)cc2CN1Cc1c(Cl)cccc1Cl [Compound 6] | > 10 |  |
| O=S1(=O)c2ccc(Oc3cccnc3)cc2CN1Cc1c(F)cccc1Cl [Compound 7] | 3.98 | 2 |
| O=S1(=O)c2ccc(Oc3cccnc3)cc2CN1Cc1ccccc1Cl [Compound 8] | 6.31 |  |
| O=S1(=O)c2ccc(Oc3cccnc3)cc2CN1Cc1cccc(Cl)c1 [Compound 9] | 1.26 | 1.58 |
| O=S1(=O)c2ccc(Oc3cccnc3)cc2CN1Cc1ccc(Cl)cc1 [Compound 10] | 3.16 | 2.51 |
| O=S1(=O)c2ccc(Oc3cccnc3)cc2CN1Cc1ccc(Cl)cc1Cl [Compound 11] | 7.94 | 3.98 |
| CN1Cc2cc(Oc3cccnc3)ccc2S1(=O)=O [Compound 12] | > 31.6 |  |
| CC(c1ccccc1)N1Cc2cc(Oc3cccnc3)ccc2S1(=O)=O (centres unmarked) [Compound 13] | > 10 |  |
| O=S1(=O)c2ccc(OC3CC(F)(F)C3)cc2CN1Cc1ccccc1 [Compound 14] | 12.6 | 20 |
| O=S1(=O)c2ccc(OC3CCC3)cc2CN1Cc1ccccc1 [Compound 15] | 0.501 | 0.794 |
| O=S1(=O)c2ccc(Oc3cccnc3)cc2CN1Cc1cc(OC(F)(F)F)ccc1Cl [Compound 16] | 3.16 |  |
| O=S1(=O)c2ccc(Oc3cccnc3)cc2CN1CCc1ccccc1 [Compound 17] | > 10 |  |
| O=S1(=O)c2ccc(Oc3cccnc3)cc2CN1Cc1cccnc1 [Compound 19] | 7.94 | 15.8 |
| O=S1(=O)c2ccc(Oc3cccnc3)cc2CN1Cc1ccncc1 [Compound 20] | 3.16 | 10 |
| O=C(O)c1ccc(CN2Cc3cc(Oc4cccnc4)ccc3S2(=O)=O)cc1 [Compound 21] | > 31.6 |  |
| O=C(O)c1cccc(CN2Cc3cc(Oc4cccnc4)ccc3S2(=O)=O)c1 [Compound 22] | > 31.6 |  |
| Cc1cc(Oc2cccnc2)cc2c1S(=O)(=O)N(Cc1ccccc1)C2 [Compound 23] | 2 |  |

| SMILES | EC50 (human GPR120 [1]) [µM] | EC50 (human GPR120 [2]) [µM] |
| --- | --- | --- |
| O=S1(=O)c2ccc(Oc3cccnc3)cc2CN1c1ccccc1 [Compound 24] | 7.94 | 2.51 |
| O=S1(=O)c2ccc(Oc3ccccc3)cc2CN1c1ccccc1 [Compound 25] | 1 | 1.26 |
| O=S1(=O)c2ccc(Oc3ccncc3)cc2CN1c1ccccc1 [Compound 26] | > 31.6 |  |
| O=S1(=O)c2ccc(Oc3ccccn3)cc2CN1c1ccccc1 [Compound 27] | > 31.6 |  |
| O=S1(=O)c2ccc(Oc3cccc(Cl)c3)cc2CN1c1ccccc1 [Compound 28] | 0.794 | 39.8 |
| O=S1(=O)c2ccc(Oc3ccc(Cl)c(Cl)c3)cc2CN1c1ccccc1 [Compound 29] | > 31.6 | > 100 |
| O=S1(=O)c2ccc(OC3CCC3)cc2CN1c1ccccc1 [Compound 30] | 2.51 | > 100 |
| O=S1(=O)c2ccc(Oc3cccnc3)cc2CN1c1cccnc1 [Compound 31] | > 10 |  |
| O=S1(=O)c2ccc(Oc3cccnc3)cc2CN1c1cccc(Cl)c1 [Compound 32] | 1.58 |  |
| O=S1(=O)c2ccc(Oc3cccnc3)cc2CN1c1cccc(OC(F)(F)F)c1 [Compound 33] | 5.01 |  |
| O=S1(=O)c2ccc(Oc3cccnc3)cc2CN1c1ccccn1 [Compound 34] | 15.8 | 10 |
| O=S1(=O)c2ccc(Oc3cccnc3)cc2CN1c1ccncc1 [Compound 35] | 12.6 |  |
| O=C(O)c1cccc(N2Cc3cc(Oc4cccnc4)ccc3S2(=O)=O)c1 [Compound 36] | > 10 |  |
| O=S1(=O)c2ccc(Oc3ccc(Cl)cc3)cc2CN1c1ccccc1 [Compound 37] | > 10 |  |
| O=S1(=O)c2ccc(OCc3ccccc3)cc2CN1c1ccccc1 [Compound 38] | 5.01 |  |
| O=S1(=O)c2ccc(OCc3cccnc3)cc2CN1c1ccccc1 [Compound 40] | > 31.6 |  |
| O=S1(=O)c2ccc(Oc3cccnc3)cc2CN1c1cc(OC(F)(F)F)ccc1Cl [Compound 41] | > 31.6 |  |
| O=S1(=O)c2ccc(Oc3cccnc3)cc2CN1C1CCC1 [Compound 44] | 12.6 |  |
| O=C1c2ccc(Oc3cccnc3)cc2CN1c1ccccc1 [Compound 45] | > 10 |  |
| O=C1c2ccc(Oc3cccnc3)cc2CN1Cc1ccccc1 [Compound 46] | 6.31 | 10 |
